Results on one compound are retold here after patent US10870662B2, “Alpha-amino pateamine A derivatives and methods for treating chronic lymphocytic leukemia” (The Texas A&M University System, priority 2015, dated 2020).

Where two headings read alike, the source gives them in different places.

In series [1] the test system is chronic lymphocytic leukemia (CLL) cells. The series is described as follows: CLL cell killing assay (annexin V / propidium iodide flow cytometry, 24 h). Format: cell-based, human. To be noted: CLL cell, primary CLL cells. Here is the method:
Biological Activity of 2-Amino Pateamine Derivatives Peripheral blood from the CLL patients were collected in heparin vacutainer tubes and centrifuged at 1500 rpm for 15 min to separate the plasma. The plasma (upper layer) was removed and saved for cell culture. The lower layer was diluted with phosphate-buffered saline (PBS), and the mononuclear cells were isolated by Ficoll density-gradient centrifugation. The isolated CLL cells were cultured at 1×10^7 cells/mL in RPMI 1640 medium containing 10% of fetal bovine serum, 10% autologous plasma, or 50% autologous plasma. Cell death in CLL lymphocytes was evaluated by flow cytometry analysis using annexin V and propidium iodide (PI) double staining. After incubation with increasing concentrations of PatA analogs for 24 hours, CLL cells (1×10^6 cells) were stained in 100 μL binding buffer with 5 μL annexin-Cy5, and incubated for 15 minutes in dark at room temperature. After staining, 300 μL binding buffer with 5 μL of 50 μg/mL propidium iodide were added to each tube. Samples were analyzed immediately by flow cytometer. Cells stained positive for either annexin V or PI were considered dead cells. The IC50 values of CLL killing were determined by non-linear fitting of the survival curve by the GraphPad Prism software.
On the technique in general: A flow cytometer gives signals particle by particle.

Series [2] can be described thus: Plasma protein binding (PPB) assay. Format: in vitro ADME. Conditions: preliminary data. Here is the method:
In this example, a representative plasma protein binding (PPB) assay used to provide the plasma protein binding data is described.
The assay includes the following steps.
1. Frozen plasma was thawed and centrifuged at 1120 g for 10 min to remove any particulates. The plasma was decanted, the pH was measured and, if required, was adjusted to pH7.4 with lactic acid.
2. All compounds were prepared at 10 mM concentration in DMSO. The solutions were carefully vortexed to ensure the compounds dissolved. The 10 mM DMSO solutions were diluted to 500 μM MeOH solutions (5+95 μl).
3. In a 2 mL 96-well plate (DWP), 1000 μL of plasma was pipetted into each well in Columns 1-4.
4. 10 μL of the 500 μM compound solution was pipetted to 1000 μL of corresponding plasma. (The final DMSO=0.05%). The solution was capped and carefully vortexed for 5 min.
5. 200 μL of PBS buffer was added to each receiver well of the dialysis plate (buffer was added to the Receiver first).
6. The bottom of dialysis plate was capped and turned over to the orange donor side (top) of dialysis plate.
7. The orange donor side of the dialysis plate was uncapped and 200 μL of the […] drug/plasma samples were transferred from the 2 ml 96-DWP to the corresponding donor wells in the dialysis plate. […]
23. The samples in the Receiver Plate, Donor Plate, and Recovery Plate were analyzed by LC/MS/MS […]

The subject of series [3] is models of human leukemia and melanoma. Conditions: mice; cited from earlier work.

As to `CC(/C=C/C(C)=C/[C@@H]1Cc2nc(cs2)CCCCC(=O)O[C@@H](C)C/C(C)=C/C=C\C(=O)O1)=C\CN(C)C` [DMDA Pat A, Des-methyl, des-amino pateamine A, reference compound], the IC50 (usually the midpoint of a concentration-inhibition curve) in series [1] (RPMI 1640 with 10% autologous (human) plasma, read-out: IC50 CLL Assay, 10% plasma) is 5.37 µM; in series [1] (RPMI 1640 with 50% autologous (human) plasma, read-out: IC50 CLL Assay, 50% plasma), more than 10 µM; in series [1] (Homo sapiens, RPMI 1640 with 10% fetal bovine serum, read-out: IC50 CLL Assay, 10% FBS), 0.71 µM. Also, the “plasma protein binding in human plasma” value in series [2] is “highly protein bound”. Further, in series [3], the “activity in xenograft models” value is on record as “significant tumor reduction”.
